This is an account of results in patent US10639296B2, “Methods to mitigate injury from radiation exposure” (priority 2009, dated 2020).

Read-outs that look alike come from different tables or passages of the source.

In one data set the test system is Balb/c mice. The note with it: 5 mg/kg i.p. 24 hours after 7 Gy.
A further data set deals with hematopoietic stem cells. The note with it: cited from earlier work.
For data set [1], the system named is C57BL/6 mice. To be noted: for cutaneous injury (skin reaction): 5 mg/kg I.P. twice, one week after radiation and 48 hours later. Here is the method: We exposed the legs of mice to 25 or 30 Gy radiation at a dose rate of approximately 5 Gy per minute. Subsequently, one week later, we administered Mozobil [LP.] at 5 mg/kg dose followed by another Mozobil administration [5 mg/kg, I.P.] 48 hours later. We monitored the test mice for lesions relating to skin damage.
Skin damage to the hind leg of C57BL/6 mice was measured using a semi-quantitative scale (TABLE ONE).

The next data set deals with normal donors. The note with it: cited from earlier work.
A further data set relates to TGF-beta. To be noted: 30 days after 30 Gy; 5 mg/kg I.P. on day 7 and 9 post-irradiation; vs 30 Gy alone. From the text:
(§1) Cytokine concentrations were from multiple samples, n=3 or 4 from single mice: one control, one receiving radiation alone and one receiving combined drug and radiation.

Another data set has as its system TNF-alpha. To be noted: 30 days after 30 Gy; 5 mg/kg I.P. on day 7 and 9 post-irradiation; vs 30 Gy alone.
Text: as §1

Data set [2] deals with C57BL/6 mice. The note with it: 6.5 Gy TBI; 5 mg/kg 72 h after the radiation; 12 days after radiation exposure; n=8.
Data set [3] relates to mice. The note with it: data not shown.
The test system of data set [4] is C57BL/6 mice. The note with it: for Median survival: 5 mg/kg I.P.
A further data set deals with dogs. The note with it: cited from earlier work.
The conditions of data set [5]: rapid peak and subsequent clearance; cited from earlier work.
For data set [6], the system named is mice. To be noted: total body dose of 8 Gy; Mozobil I.P. 5 mg/kg single injection days later. Here is the method:
We exposed mice to radiation, total body dose of 8 Gy at a rate of approximately 1 Gy per minute. Subsequently, days later, we administered Mozobil [I.P.] at 5 mg/kg dose as a single injection. We monitored the test mice for lethality.

The mark [7] stands for this setting: dogs after lethal dose of TBI, AMD-3100 mobilized peripheral blood mononuclear cells.

As to `c1cc(CN2CCCNCCNCCCNCC2)ccc1CN1CCCNCCNCCCNCC1` [plerixafor], the Median survival in the data set on Balb/c mice is 18 days; in the data set on C57BL/6 mice [4] (48 h between radiation and drug), 18 days; with C57BL/6 mice [4] (72 h between radiation and drug), more than 30 days. Further, in the data set with hematopoietic stem cells (mice, dogs, and humans), the “mobilization of hematopoietic stem cells from the bone marrow to the bloodstream” value is recorded as “strong inducer”. In the data set on hematopoietic stem cells (mouse and human hematopoietic progenitor cells), the “G-CSF-induced mobilization of HPCs” value is “synergistically augmented”. For the same compound, the “cutaneous injury (skin reaction)” value with C57BL/6 mice [1] (25 Gy, to day 60) is on record as “soon resolved completely”; with C57BL/6 mice [1] (30 Gy, approximately day 60) it was “had some hair loss but were otherwise normal”. Further, the “skin damage (lesions)” value with C57BL/6 mice [1] (legs, 25 or 30 Gy, 5 mg/kg one week later and again 5 mg/kg I.P. 48 hours later) is given as “significantly reduced”. Further, the “side effects of single-dose administration” value in the data set on normal donors is given as “very minor”. Also, the “TGF-beta in irradiated skin” value with TGF-beta was “significantly reduced”. Besides, the “TNF-alpha in irradiated skin” value in the data set with TNF-alpha is “significantly reduced”. For the same compound, in the data set with C57BL/6 mice [2], the “number of endogenous spleen colonies (mean)” value was 47±9. Besides, the “Leg contraction (percent leg extension relative to the unirradiated leg)” value in the data set with mice [3] is listed as “significantly improved”. Also, the “Survival at 30 days” value is recorded as 0% with C57BL/6 mice [4] (5 mg/kg I.P. administered 24 h after radiation exposure), 14% in the data set with C57BL/6 mice [4] (5 mg/kg I.P. administered 48 h after radiation exposure) and 69% with C57BL/6 mice [4] (5 mg/kg I.P. administered 72 h after radiation exposure). The “mitigation from TBI-induced lethality” value with C57BL/6 mice [4] (given after total body irradiation) is “significant mitigation”. Moreover, in the data set on dogs (dog, in vivo), the “tolerability (adverse effects)” value is reported as “well tolerated without noticeable adverse effects”. Further, in the data set on dogs (setting [7]), the “Median days to neutrophil recovery” value is 9 days. Besides, the “Median days to platelet recovery” value in the data set with dogs (setting [7]) is listed as 25 days. Also, in the data set on dogs (dogs), the “lethality after total body irradiation” value is listed as “mitigates lethality”. In data set [5], the “clearance of the drug after injection” value is on record as not above 24 h. In addition, the “survival (lethality)” value in the data set on mice [6] is given as “significantly enhanced”.
